Test results from ChEMBL document CHEMBL3352323, “Lead optimization of a pyrazole sulfonamide series of Trypanosoma brucei N-myristoyltransferase inhibitors: identification and evaluation of CNS penetrant compounds as potential treatments for stage 2 human African trypanosomiasis” (J Med Chem, 2014).
Calls of active or inactive are those of the source. The calls are words filed in the database; no cut-off is given here.

Legend:
Trypanosoma brucei = test: microbe, parasite or virus in culture; details: BSF427, 69 h
Description: Antitrypanosomal activity against Trypanosoma brucei BSF427 expressing VSG118 infected in human MRC5 cells assessed as reduction cell viability incubated for 69 hrs by rezasurin dye based assay

[1] = Inhibition of Trypanosoma brucei N-myristoyltransferase assessed as transfer of [3H]-myristic acid to a biotinylated substrate peptide (GCGGSKVKPQPPQAK(biotin)-amide by scintillation proximity assay
MRC5 = test: cells; details: Homo sapiens, MRC5, 69 h
Description: Antiproliferative activity against human MRC5 cells assessed as reduction cell viability incubated for 69 hrs by rezasurin dye based assay

Mus musculus [2] = test: Oral bioavailability in NMRI mouse at 10 mg/kg by UPLC-MS/MS method; assay type: ADME, organism-based; details: in vivo
[3] = tested on: Trypanosoma brucei rhodesiense; test: Trypanocidal activity against bloodstream form of Trypanosoma brucei rhodesiense STIB900 infected in twice daily po dosed mouse; assay type: functional
Mus musculus [4] = test: AUC (0 to 8 hrs) in NMRI mouse at 10 mg/kg, po by UPLC-MS/MS method; assay type: ADME, organism-based, Plasma; design: time < 8 hr, dose 10 mg/kg, route oral; details: in vivo
[5] = tested on: Trypanosoma brucei brucei; test: Trypanocidal activity against bloodstream form of Trypanosoma brucei brucei S427 infected in mouse stage 1 HAT model at […], po bid for 4 days; assay type: functional, organism-based
[6] = tested on: Trypanosoma brucei rhodesiense; test: Trypanocidal activity against bloodstream form of Trypanosoma brucei rhodesiense STIB900 infected in mouse stage 1 HAT model at 50 mg/kg, po bid for 4 days; assay type: functional, organism-based; design: dose 50 mg/kg
[7] = Plasma protein binding in mouse; assay type: ADME, organism-based; details: read-out: PPB (converted)
[8] = (§1) Maximum tolerated dose in orally twice daily dosed mouse; assay type: ADME, organism-based; details: in vivo, po
Mus musculus [9] = test: Toxicity in bloodstream form of Trypanosoma brucei beucei GVR35 infected NMRI mouse stage 2 human African trypanosomiasis model at 150 mg/kg, po bid for 5 days; assay type: organism-based; design: dose 150 mg/kg, route oral; details: in vivo, 120 h
[10] = tested on: Trypanosoma brucei brucei; test: Trypanocidal activity against Trypanosoma brucei beucei GVR35 infected in NMRI mouse acute model dosed twice daily orally for 4 days; assay type: functional
Mus musculus [11] = test: as §1; assay type: ADME, organism-based; details: in vivo, po
[12] = tested on: Trypanosoma brucei brucei; test: Trypanocidal activity against bloodstream form of Trypanosoma brucei beucei GVR35 infected in NMRI mouse stage 2 human African trypanosomiasis model at 50 mg/kg, po bid for 8 days; assay type: functional, organism-based; design: dose 50 mg/kg
[13] = tested on: Trypanosoma brucei brucei; test: Trypanocidal activity against bloodstream form of Trypanosoma brucei beucei GVR35 infected in NMRI mouse stage 2 human African trypanosomiasis model at 25 mg/kg, po bid for 10 days; assay type: functional, organism-based; design: dose 25 mg/kg
[14] = tested on: Trypanosoma brucei brucei; test: Trypanocidal activity against Trypanosoma brucei beucei S427 infected in NMRI mouse acute model dosed twice daily orally for 4 days; assay type: functional
Mus musculus [15] = test: Toxicity in bloodstream form of Trypanosoma brucei beucei GVR35 infected NMRI mouse stage 2 human African trypanosomiasis model at 50 mg/kg, po bid for 5 days; assay type: organism-based; design: dose 50 mg/kg, route oral; details: in vivo, 120 h
Mus musculus [16] = test: Toxicity in bloodstream form of Trypanosoma brucei beucei GVR35 infected NMRI mouse stage 2 human African trypanosomiasis model at 50 mg/kg, po bid for 8 days; assay type: organism-based; design: dose 50 mg/kg, route oral; details: in vivo, 192 h
[17] = biological target: Voltage-gated inwardly rectifying potassium channel KCNH2 (Homo sapiens, UniProt Q12809); test: Inhibition of human ERG
Voltage-gated inwardly rectifying potassium channel KCNH2, sequence (Q12809 whole entry): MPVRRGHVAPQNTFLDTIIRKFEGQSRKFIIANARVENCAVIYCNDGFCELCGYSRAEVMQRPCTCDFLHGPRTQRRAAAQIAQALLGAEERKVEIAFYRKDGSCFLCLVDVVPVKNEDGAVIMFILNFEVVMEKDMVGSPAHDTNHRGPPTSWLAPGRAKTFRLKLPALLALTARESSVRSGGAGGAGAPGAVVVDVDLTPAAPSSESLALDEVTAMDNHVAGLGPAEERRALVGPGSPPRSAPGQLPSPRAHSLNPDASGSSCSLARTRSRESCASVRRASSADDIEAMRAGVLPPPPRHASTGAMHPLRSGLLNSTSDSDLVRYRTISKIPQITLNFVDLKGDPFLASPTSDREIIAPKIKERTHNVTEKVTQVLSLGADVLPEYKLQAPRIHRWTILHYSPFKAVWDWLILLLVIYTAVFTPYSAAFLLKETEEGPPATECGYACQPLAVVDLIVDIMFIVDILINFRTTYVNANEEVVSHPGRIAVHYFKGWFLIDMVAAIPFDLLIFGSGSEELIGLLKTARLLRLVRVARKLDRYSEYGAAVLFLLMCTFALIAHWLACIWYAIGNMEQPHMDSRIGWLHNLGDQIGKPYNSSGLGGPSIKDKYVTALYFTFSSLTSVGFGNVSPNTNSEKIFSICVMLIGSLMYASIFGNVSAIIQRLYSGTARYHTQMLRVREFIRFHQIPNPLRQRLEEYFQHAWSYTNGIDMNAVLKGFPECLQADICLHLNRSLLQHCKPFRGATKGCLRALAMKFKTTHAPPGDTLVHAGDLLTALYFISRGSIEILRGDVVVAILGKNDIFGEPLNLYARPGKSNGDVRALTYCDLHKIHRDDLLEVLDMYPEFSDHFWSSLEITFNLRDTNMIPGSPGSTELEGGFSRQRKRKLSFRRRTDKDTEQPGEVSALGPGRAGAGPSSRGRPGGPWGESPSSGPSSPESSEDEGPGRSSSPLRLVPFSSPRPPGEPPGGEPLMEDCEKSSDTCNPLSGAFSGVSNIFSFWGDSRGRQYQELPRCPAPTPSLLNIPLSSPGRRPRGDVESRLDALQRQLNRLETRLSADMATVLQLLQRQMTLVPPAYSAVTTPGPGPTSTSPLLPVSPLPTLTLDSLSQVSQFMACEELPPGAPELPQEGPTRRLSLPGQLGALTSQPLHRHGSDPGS

[18] = tested on: Trypanosoma brucei brucei; test: Trypanocidal activity against bloodstream form of Trypanosoma brucei beucei GVR35 infected in NMRI mouse stage 2 human African trypanosomiasis model at 100 mg/kg, po bid for 8 days followed by three rounds of 3 day dosing at 100 mg/kg with two day drug holiday between rounds; assay type: functional, organism-based
Mus musculus [19] = test: Toxicity in bloodstream form of Trypanosoma brucei beucei GVR35 infected NMRI mouse stage 2 human African trypanosomiasis model at 100 mg/kg, po bid for 5 days; assay type: organism-based; design: dose 100 mg/kg, route oral; details: in vivo, 120 h
[20] = Ratio of drug level in brain to blood in mdr1a-deficient mouse; assay type: ADME, organism-based; details: brain and blood, read-out: BBR
[21] = biological target: T1, Glycylpeptide N-tetradecanoyltransferase 1 (Homo sapiens, UniProt P30419); test: Inhibition of human N-myristoyltransferase 1 assessed as transfer of [3H]-myristic acid to a biotinylated substrate peptide (GCGGSKVKPQPPQAK(biotin)-amide by scintillation proximity assay
T1 sequence (P30419 whole entry): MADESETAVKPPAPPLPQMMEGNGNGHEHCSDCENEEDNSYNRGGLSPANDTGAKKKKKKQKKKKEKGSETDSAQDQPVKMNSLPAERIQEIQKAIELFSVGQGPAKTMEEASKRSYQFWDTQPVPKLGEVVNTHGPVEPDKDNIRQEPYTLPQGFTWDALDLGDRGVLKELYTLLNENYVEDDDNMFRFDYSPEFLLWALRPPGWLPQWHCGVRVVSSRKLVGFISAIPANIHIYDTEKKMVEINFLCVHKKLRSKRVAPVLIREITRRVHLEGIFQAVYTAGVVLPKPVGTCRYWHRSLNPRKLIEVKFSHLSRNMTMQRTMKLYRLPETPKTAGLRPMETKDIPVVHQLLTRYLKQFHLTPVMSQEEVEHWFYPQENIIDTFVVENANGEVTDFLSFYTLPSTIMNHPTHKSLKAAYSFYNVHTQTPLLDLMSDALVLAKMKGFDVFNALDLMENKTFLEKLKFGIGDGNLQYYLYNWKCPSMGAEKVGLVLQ

[22] = Ratio of drug level in brain to blood in wild type NMRI mouse at 2 mg free base/kg, iv by UPLC-MS/MS method; assay type: ADME, organism-based; details: brain and blood, read-out: BBR
[23] = Selectivity index, IC50 for human N-myristoyltransferase to EC50 for Trypanosoma brucei; assay type: functional
[24] = tested on: Trypanosoma brucei brucei; test: Trypanocidal activity against bloodstream form of Trypanosoma brucei beucei GVR35 infected in NMRI mouse stage 2 human African trypanosomiasis model at 150 mg/kg, po bid for 5 days; assay type: functional, organism-based; design: dose 150 mg/kg

Row | SMILES | EC50 (Trypanosoma brucei) [nM] | IC50 [1] [nM] | EC50 (MRC5) [nM] | further results
1 | Cc1nn(C)c(C)c1NS(=O)(=O)c1c(Cl)cc(CCCCC2CCNCC2)cc1Cl | 0.6 | 3 | 370 | 
2 | Cc1nn(C)cc1NS(=O)(=O)c1c(Cl)cc(-c2ccnc(N3CCNCC3)c2)cc1Cl | 2 | 4 | 250 | 
3 | Cc1nn(C)c(C)c1NS(=O)(=O)c1c(Cl)cc(-c2ccnc(N3CCNCC3)c2)cc1Cl |  |  |  | F (Mus musculus [2]): 20%; MCD [3]: 50 mg/kg; AUC (Mus musculus [4]): 392 µg/min/mL; Activity [5]: Active; Activity [6]: Active; fraction unbound [7]: 0.06
4 | Cc1nn(C)c(C)c1NS(=O)(=O)c1c(Cl)cc(CCCN2CCN(C)CC2)cc1Cl |  | 3 | 31400 | 
5 | Cc1nn(C)c(C)c1NS(=O)(=O)c1c(Cl)cc(CCCCC2CCN(C)CC2)cc1Cl | 0.5 | 1 | 180 | 
6 | Cc1nn(C)c(C)c1N(CC(F)(F)F)[S+](=O)([O-])c1c(Cl)cc(CCCC2CCN(C)CC2)cc1Cl |  |  |  | MTD [8]: 150 mg/kg; Activity (Mus musculus [9]): Non-toxic
7 | Cc1nn(C)c(C)c1N(C(F)F)S(=O)(=O)c1c(Cl)cc(CCCN2CCN3CCC[C@@H]3C2)cc1Cl |  | 2 | 3100 | 
8 | Cc1nn(C)c(C)c1NS(=O)(=O)c1ccc(CCCCC2CCNCC2)cc1 | 9 | 6 | 5300 | 
9 | Cn1cc(NS(=O)(=O)c2c(Cl)cc(-c3ccnc(N4CCNCC4)c3)cc2Cl)cn1 | 370 |  | 10300 | 
10 | Cc1nn(C)c(C)c1N(C(F)F)S(=O)(=O)c1c(Cl)cc(CCCCC2CCN(C)CC2)cc1Cl |  |  |  | MCD [10]: 25 mg/kg; MTD (Mus musculus [11]): 50 mg/kg; inhibition [12]: inactive; inhibition [13]: inactive; MCD [14]: 6 mg/kg; Activity (Mus musculus [15]): Toxic; Activity (Mus musculus [16]): Toxic
11 | Cc1nn(C)c(C)c1NS(=O)(=O)c1c(Cl)cc(CCCC2CCNCC2)cc1Cl | 2 | 2 | 2500 | 
12 | Cc1nn(C)c(C)c1N(C(F)F)S(=O)(=O)c1c(Cl)cc(CCCOC[C@H]2CCCCN2C)cc1Cl |  | 2 | 3500 | 
13 | Cc1nn(C)c(C)c1NS(=O)(=O)c1c(Cl)cc(C#Cc2cncn2C)cc1Cl | 3900 | 660 | 16600 | 
14 | Cc1nn(C)c(C)c1NS(=O)(=O)c1ccc(CCCC2CCNCC2)cc1 | 110 | 9 | > 50000 | 
15 | Cc1nn(C)c(C)c1N(C(F)F)S(=O)(=O)c1c(Cl)cc(CCCOC[C@@H]2CCCN2C)cc1Cl |  | 2 | 2800 | 
16 | Cc1nn(C)c(C)c1N(C(F)F)S(=O)(=O)c1c(Cl)cc(CCCOC[C@H]2CCCN2C)cc1Cl |  | 2 | 3200 | 
17 | Cc1nn(C)c(C)c1N(C(F)F)S(=O)(=O)c1c(Cl)cc(CCCC2CCN(C)CC2)cc1Cl |  |  |  | MTD (Mus musculus [11]): 100 mg/kg; IC50 [17]: 600 nM; inhibition [18]: Active; Activity (Mus musculus [19]): Toxic
18 | Cc1nn(C)c(C)c1NS(=O)(=O)c1c(Cl)cc(Br)cc1Cl | 16000 | 500 | > 50000 | Kp [20]: < 0.1; IC50 [21]: 7300 nM; Kp [22]: < 0.1
19 | Cc1nn(C)c(C)c1NS(=O)(=O)c1ccc(CCCC2CCN(C)CC2)cc1 | 30 | 7 | 18700 | 
20 | Cc1nn(C)c(C)c1NS(=O)(=O)c1ccc(CCCN2CCN(C)CC2)cc1 | 750 | 120 | > 50000 | IC50 [21]: 3500 nM; Selectivity Index [23]: 4.7
21 | Cc1nn(C)c(CC(C)C)c1NS(=O)(=O)c1c(Cl)cc(-c2ccnc(N3CCNCC3)c2)cc1Cl | 5 | 6 | 640 | 
22 | Cc1nn(C)c(C)c1NS(=O)(=O)c1c(Cl)cc(CCCC2CCN(C)CC2)cc1Cl | 2 | 2 | 2200 | 
23 | Cc1nn(C)c(C)c1N(CC(F)(F)F)S(=O)(=O)c1c(Cl)cc(CCCC2CCN(C)CC2)cc1Cl |  |  |  | inhibition [24]: inactive
24 | Cc1c(NS(=O)(=O)c2c(Cl)cc(-c3ccnc(N4CCNCC4)c3)cc2Cl)cnn1C | 24 |  | 1230 | 
25 | Cc1nn(C)c(C)c1N(C)S(=O)(=O)c1c(Cl)cc(Br)cc1Cl | 5100 | 330 | 27200 | Kp [20]: 3.7; IC50 [21]: 3580 nM; Kp [22]: 3.7
26 | Cc1nn(C)c(C)c1NS(=O)(=O)c1ccc(CCCCC2CCN(C)CC2)cc1 | 16 | 3 | 3600 | 
27 | Cc1c(NS(=O)(=O)c2c(Cl)cc(-c3ccnc(N4CCNCC4)c3)cc2Cl)c(CC(C)C)nn1C [ZELENIRSTAT] |  |  |  | F (Mus musculus [2]): 93%; MCD [3]: 6 mg/kg; AUC (Mus musculus [4]): 3400 µg/min/mL
28 | Cc1nn(C)c(C)c1NS(=O)(=O)c1c(Cl)cc(C#CCN2CCN(C)CC2)cc1Cl | 660 | 160 | > 50000 | IC50 [21]: 4600 nM; Selectivity Index [23]: 7
29 | Cc1nn(C)c(C)c1N(C(F)F)S(=O)(=O)c1c(Cl)cc(CCCOC[C@@H]2CCCCN2C)cc1Cl |  | 2 | 3900 | 
